# Reference: ChEMBL document CHEMBL5465560, “Selectivity Literature for EUbOPEN Chemogenomic Library” (2024)
# Experiments:
# [1] = target: T1, Ephrin type-A receptor 6 (Homo sapiens) (UniProt Q9UF33); conditions: at 10 µM
# T1 sequence (whole entry): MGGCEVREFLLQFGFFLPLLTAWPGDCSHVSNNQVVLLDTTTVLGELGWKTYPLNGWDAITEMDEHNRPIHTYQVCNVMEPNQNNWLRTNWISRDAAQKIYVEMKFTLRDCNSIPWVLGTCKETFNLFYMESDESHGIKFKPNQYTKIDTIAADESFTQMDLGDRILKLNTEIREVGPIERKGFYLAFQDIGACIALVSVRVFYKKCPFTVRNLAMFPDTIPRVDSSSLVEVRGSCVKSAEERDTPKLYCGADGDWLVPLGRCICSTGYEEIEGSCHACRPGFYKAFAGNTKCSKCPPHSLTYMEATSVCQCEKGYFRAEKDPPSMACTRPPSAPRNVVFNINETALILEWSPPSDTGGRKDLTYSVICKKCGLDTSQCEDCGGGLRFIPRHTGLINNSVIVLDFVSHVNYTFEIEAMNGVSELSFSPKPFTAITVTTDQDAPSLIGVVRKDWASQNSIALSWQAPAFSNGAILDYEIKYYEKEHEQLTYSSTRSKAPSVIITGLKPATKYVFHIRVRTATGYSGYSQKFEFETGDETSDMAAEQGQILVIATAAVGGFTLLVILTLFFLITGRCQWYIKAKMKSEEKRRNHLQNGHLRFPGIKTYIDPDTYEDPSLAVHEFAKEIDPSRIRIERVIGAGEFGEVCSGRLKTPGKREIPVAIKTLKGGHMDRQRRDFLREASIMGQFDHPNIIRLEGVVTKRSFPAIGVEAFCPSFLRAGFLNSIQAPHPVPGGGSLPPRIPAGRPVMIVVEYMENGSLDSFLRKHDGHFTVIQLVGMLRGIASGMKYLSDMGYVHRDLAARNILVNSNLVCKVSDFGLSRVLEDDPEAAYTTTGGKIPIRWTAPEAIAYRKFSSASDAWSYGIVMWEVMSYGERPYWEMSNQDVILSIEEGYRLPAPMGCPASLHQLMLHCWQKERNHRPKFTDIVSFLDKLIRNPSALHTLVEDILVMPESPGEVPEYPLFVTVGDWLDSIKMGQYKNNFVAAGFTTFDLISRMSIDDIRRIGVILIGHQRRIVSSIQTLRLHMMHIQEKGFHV
# Ephrin type-A receptor 4 = Ephrin type-A receptor 4 (Homo sapiens, UniProt P54764); conditions: at 10 µM
# [2] = target: T2, Mitogen-activated protein kinase kinase kinase 7 (Homo sapiens) (UniProt O43318); experiment: Selectivity interaction (Upstate Kinase Profiler service (Millipore)) EUB0000056c MAP3K7; conditions: at 1 µM
# T2 sequence (whole entry): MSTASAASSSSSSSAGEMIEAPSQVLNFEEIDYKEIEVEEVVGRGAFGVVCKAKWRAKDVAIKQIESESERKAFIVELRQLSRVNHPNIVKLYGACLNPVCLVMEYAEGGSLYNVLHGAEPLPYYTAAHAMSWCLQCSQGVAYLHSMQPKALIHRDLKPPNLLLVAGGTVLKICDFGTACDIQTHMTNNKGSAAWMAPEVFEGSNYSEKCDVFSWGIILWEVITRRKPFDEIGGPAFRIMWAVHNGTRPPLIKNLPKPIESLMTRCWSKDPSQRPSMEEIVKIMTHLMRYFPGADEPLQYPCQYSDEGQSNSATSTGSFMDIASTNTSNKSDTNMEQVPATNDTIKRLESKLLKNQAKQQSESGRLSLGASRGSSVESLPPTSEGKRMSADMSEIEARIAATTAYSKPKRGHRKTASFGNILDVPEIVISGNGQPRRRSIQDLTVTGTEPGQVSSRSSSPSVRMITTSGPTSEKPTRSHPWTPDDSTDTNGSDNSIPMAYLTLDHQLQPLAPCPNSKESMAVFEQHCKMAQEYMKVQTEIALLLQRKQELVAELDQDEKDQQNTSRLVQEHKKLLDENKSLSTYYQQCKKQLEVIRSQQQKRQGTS
# [3] = target: T3, Serine/threonine-protein kinase RIO3 (Homo sapiens) (UniProt O14730); experiment: Selectivity interaction (KinomeScan (DiscoverX)) EUB0001079a RIOK3; conditions: at 1 µM
# T3 sequence (whole entry): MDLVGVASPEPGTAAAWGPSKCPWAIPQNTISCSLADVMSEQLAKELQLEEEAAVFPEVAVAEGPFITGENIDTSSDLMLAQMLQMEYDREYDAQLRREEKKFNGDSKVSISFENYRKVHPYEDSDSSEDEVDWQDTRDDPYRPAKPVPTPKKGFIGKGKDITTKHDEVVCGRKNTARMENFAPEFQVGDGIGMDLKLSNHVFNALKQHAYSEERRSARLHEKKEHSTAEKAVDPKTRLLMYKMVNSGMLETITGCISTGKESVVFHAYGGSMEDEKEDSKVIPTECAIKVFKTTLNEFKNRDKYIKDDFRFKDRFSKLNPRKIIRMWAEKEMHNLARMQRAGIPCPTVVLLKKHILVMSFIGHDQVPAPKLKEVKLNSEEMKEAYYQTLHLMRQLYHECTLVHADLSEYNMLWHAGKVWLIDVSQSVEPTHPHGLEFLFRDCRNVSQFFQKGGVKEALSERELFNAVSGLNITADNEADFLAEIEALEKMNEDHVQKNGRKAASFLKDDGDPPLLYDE
# [4] = target: Serine/threonine-protein kinase 16 (Homo sapiens, UniProt O75716); experiment: Selectivity interaction (KinomeScan (DiscoverX)) EUB0001079a STK16; conditions: at 1 µM
# [5] = target: Tyrosine-protein kinase BTK (Homo sapiens, UniProt Q06187); experiment: Selectivity interaction (Millipore kinase profiler) EUB0000124b BTK; conditions: at 10 µM
# [6] = target: Platelet-derived growth factor receptor beta (Homo sapiens, UniProt P09619); experiment: Selectivity interaction (Millipore kinase profiler) EUB0000124b PDGFRB; conditions: at 10 µM
# [7] = system: Tyrosine-protein kinase ABL1 (Homo sapiens), P00519 [E255K]; conditions: at 10 µM
# [8] = target: Serine/threonine-protein kinase Nek7 (Homo sapiens) (UniProt Q8TDX7); experiment: Selectivity interaction (KinomeScan (DiscoverX)) EUB0000607a NEK7; conditions: at 10 µM
# [9] = target: T4, cAMP-dependent protein kinase catalytic subunit PRKX (Homo sapiens) (UniProt P51817); experiment: Selectivity interaction (KinomeScan (DiscoverX)) EUB0000607a PRKX; conditions: at 10 µM
# T4 sequence (whole entry): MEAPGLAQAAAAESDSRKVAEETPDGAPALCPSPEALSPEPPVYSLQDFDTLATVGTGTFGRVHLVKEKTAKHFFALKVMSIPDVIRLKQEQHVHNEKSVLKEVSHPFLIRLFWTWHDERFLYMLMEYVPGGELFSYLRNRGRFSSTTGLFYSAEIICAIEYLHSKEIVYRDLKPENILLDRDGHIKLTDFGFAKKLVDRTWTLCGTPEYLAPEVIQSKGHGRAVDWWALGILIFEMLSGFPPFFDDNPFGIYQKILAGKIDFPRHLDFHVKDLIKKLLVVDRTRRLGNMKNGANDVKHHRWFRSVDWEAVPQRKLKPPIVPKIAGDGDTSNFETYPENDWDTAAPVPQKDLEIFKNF
# Sequence of Platelet-derived growth factor receptor beta (P09619 whole entry): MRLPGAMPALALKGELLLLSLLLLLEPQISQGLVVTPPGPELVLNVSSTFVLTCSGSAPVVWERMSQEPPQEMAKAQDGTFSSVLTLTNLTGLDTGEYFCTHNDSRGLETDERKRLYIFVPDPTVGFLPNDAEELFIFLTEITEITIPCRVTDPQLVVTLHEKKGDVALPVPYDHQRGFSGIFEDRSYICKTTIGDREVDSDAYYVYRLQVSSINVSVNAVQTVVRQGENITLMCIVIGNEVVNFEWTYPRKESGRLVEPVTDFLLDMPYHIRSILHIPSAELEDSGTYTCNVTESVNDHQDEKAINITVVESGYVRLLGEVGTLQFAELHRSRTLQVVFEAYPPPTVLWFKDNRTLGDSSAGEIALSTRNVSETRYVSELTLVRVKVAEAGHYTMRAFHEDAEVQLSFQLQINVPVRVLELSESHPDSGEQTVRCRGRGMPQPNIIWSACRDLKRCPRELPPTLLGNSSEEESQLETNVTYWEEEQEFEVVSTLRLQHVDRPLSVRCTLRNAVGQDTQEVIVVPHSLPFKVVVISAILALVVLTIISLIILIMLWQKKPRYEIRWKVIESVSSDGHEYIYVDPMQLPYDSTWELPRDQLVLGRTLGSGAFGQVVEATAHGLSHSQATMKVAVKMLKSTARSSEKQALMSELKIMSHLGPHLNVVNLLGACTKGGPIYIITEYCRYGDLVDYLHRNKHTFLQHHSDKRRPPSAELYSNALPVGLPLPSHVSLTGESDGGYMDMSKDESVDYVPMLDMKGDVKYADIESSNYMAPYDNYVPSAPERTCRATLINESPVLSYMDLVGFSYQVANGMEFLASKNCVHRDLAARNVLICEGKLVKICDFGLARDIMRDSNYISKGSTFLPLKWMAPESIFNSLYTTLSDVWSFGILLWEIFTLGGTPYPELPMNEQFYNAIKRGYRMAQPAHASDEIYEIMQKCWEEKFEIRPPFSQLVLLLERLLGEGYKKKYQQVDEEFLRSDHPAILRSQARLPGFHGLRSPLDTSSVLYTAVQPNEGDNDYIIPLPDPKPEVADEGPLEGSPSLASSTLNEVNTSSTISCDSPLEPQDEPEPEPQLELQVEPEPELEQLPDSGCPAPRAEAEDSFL
# Sequence of Tyrosine-protein kinase ABL1 (Homo sapiens), P00519 [E255K] (P00519 whole entry E255K): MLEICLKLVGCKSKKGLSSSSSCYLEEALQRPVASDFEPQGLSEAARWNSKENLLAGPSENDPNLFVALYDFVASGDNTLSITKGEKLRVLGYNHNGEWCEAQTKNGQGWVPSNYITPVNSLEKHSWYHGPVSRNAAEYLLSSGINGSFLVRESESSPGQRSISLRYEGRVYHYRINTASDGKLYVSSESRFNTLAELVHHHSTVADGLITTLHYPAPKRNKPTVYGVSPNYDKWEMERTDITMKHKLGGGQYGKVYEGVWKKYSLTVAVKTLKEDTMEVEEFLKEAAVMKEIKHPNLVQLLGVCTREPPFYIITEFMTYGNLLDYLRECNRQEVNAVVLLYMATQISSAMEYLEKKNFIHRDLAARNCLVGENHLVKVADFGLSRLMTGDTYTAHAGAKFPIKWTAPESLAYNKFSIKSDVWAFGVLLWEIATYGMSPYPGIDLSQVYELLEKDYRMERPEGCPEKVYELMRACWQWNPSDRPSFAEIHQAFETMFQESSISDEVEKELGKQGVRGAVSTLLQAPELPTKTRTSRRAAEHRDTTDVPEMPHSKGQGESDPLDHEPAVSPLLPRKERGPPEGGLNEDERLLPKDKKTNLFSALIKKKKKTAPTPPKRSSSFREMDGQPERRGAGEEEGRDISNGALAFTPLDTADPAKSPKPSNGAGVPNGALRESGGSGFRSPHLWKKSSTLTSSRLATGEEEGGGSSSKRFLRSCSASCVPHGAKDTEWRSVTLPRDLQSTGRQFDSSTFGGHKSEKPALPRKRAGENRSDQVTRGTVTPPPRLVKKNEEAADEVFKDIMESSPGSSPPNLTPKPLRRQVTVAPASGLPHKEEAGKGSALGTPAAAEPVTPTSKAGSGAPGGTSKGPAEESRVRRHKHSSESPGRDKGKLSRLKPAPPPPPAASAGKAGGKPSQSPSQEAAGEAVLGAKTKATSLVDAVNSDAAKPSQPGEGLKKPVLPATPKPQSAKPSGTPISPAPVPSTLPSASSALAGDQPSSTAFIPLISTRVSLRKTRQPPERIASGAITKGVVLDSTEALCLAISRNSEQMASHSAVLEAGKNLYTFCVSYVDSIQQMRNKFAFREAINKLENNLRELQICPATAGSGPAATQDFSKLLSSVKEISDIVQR
# Sequence of Serine/threonine-protein kinase 16 (O75716 whole entry): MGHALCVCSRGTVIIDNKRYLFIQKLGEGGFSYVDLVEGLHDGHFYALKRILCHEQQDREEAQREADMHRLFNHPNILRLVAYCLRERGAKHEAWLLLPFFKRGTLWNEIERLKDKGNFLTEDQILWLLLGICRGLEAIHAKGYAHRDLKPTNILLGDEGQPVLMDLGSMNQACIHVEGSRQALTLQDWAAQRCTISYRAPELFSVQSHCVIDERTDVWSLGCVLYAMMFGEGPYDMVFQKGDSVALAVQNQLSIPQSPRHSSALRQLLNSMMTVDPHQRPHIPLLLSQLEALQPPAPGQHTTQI
# Sequence of Serine/threonine-protein kinase Nek7 (Homo sapiens) (Q8TDX7 whole entry, looked up): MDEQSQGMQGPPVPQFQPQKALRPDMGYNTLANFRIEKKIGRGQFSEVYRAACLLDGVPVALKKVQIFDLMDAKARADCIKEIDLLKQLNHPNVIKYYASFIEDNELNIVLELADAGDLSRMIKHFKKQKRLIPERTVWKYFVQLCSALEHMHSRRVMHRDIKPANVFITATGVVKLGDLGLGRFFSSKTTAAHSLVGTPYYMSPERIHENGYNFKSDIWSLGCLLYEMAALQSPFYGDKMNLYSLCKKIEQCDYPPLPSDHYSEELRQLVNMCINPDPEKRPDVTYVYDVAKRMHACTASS
# Sequence of Ephrin type-A receptor 4 (P54764 whole entry): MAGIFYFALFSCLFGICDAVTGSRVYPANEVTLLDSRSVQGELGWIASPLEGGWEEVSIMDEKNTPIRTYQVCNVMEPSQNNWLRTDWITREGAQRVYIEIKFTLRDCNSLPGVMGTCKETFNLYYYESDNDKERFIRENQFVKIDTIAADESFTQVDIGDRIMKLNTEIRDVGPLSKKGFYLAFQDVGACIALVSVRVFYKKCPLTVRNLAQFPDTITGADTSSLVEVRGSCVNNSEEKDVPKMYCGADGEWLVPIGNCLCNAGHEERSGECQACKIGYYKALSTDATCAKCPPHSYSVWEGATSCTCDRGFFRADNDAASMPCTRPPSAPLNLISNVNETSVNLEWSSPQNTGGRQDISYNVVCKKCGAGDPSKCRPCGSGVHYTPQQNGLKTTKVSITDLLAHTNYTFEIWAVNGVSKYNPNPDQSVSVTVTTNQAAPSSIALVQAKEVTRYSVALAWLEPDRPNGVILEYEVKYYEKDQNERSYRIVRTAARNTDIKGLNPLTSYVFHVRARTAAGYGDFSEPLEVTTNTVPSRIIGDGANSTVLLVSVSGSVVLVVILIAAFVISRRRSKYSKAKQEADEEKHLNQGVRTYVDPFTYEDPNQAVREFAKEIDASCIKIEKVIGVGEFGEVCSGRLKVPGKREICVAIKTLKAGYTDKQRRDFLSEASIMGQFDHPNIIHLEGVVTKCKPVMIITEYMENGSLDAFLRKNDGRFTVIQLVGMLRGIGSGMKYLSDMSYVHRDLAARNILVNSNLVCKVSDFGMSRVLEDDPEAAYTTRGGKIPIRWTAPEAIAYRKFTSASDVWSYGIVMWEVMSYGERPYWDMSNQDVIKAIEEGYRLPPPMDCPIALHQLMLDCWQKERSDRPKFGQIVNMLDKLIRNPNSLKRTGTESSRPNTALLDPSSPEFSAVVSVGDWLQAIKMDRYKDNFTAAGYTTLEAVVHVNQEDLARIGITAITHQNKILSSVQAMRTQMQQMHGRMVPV
# Sequence of Tyrosine-protein kinase BTK (Q06187 whole entry): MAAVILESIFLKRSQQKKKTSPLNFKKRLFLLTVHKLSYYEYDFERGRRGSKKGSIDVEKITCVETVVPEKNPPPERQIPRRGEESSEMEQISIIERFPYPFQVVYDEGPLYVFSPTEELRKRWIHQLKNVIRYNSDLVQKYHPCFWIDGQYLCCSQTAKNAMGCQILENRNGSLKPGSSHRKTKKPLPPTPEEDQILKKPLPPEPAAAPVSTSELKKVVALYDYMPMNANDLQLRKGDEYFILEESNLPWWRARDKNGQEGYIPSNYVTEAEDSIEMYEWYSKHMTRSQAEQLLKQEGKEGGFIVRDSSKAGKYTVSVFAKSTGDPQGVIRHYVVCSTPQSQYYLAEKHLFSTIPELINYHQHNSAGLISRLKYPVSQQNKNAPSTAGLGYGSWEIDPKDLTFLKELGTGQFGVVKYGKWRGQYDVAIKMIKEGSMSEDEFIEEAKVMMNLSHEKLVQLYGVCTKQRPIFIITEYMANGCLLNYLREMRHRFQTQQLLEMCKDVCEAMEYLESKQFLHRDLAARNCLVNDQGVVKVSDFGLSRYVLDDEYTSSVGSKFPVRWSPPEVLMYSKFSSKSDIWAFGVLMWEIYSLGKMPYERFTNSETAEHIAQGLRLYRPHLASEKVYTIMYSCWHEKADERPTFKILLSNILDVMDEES
compound,measurement,setting,value
CCN(CC)CCCCNc1ncc2cc(-c3cc(OC)cc(OC)c3)c(NC(=O)NC(C)(C)C)nc2n1,% of control,[1],100%
same,% of control,Ephrin type-A receptor 4,100%
Cc1ccc(-c2ccc3c(ccc4sc5c(c43)NC[C@@H](C)NC5=O)n2)cn1,% of inhibition,[2],6%
Nc1cnc(N2CCc3cc(S(=O)(=O)Nc4c(F)cc(Cl)cc4F)cc(N4CCCC4=O)c32)nc1 [TP-020n],% of control,[3],100%
same,% of control,[4],100%
CC(=O)Nc1cccc(-n2c(=O)n(C3CC3)c(=O)c3c(Nc4ccc(I)cc4F)n(C)c(=O)c(C)c32)c1,% of control,[5],104%
same,% of control,[6],111%
Cc1cc([C@@H](C)Nc2ccccc2C(=O)O)c2nc(N3CCOCC3)cc(=O)n2c1 [AZD-6482],% of control,[7],94%
CNC(=O)Nc1ccc(-c2nc(N3CC4CCC(C3)O4)c3cnn(C4CCC5(CC4)OCCO5)c3n2)cc1,% of control,[8],100%
same,% of control,[9],100%
